Assays:
Format in all cases: in vivo
[1] = tested on: Kochia (Kochia scoparia); assay: Test A preemergence; conditions: Bassia scoparia, pre-emergence, 240 h, preemergence, 0 to 100 scale where 0 is no effect and 100 is complete control, read-out: Kochia plant response rating
In short: (§1)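 Visual injury, scored on a 0–100 scale relative to untreated controls, was recorded about 10 d after application. Treatments were a preemergence soil spray over planted seeds or a postemergence spray on plants at the one- to two-leaf stage, 2 to 10 cm tall, all in loam soil–sand blend in the greenhouse.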

[2] = tested on: giant foxtail (Setaria faberii); assay: Test A preemergence; conditions: Setaria faberi, pre-emergence, 240 h, preemergence, 0 to 100 scale where 0 is no effect and 100 is complete control, read-out: Foxtail, Giant plant response rating
In short: as §1

[3] = tested on: pigweed (Amaranthus retroflexus); assay: Test A preemergence; conditions: Amaranthus retroflexus, pre-emergence, 240 h, preemergence, 0 to 100 scale where 0 is no effect and 100 is complete control, read-out: Pigweed plant response rating
[4] = tested on: ragweed (common ragweed, Ambrosia elatior); assay: Test A preemergence; conditions: Ambrosia artemisiifolia, pre-emergence, 240 h, preemergence, 0 to 100 scale where 0 is no effect and 100 is complete control, read-out: Ragweed plant response rating
In short: as §1

[5] = tested on: ryegrass, Italian (Italian ryegrass, Lolium multiflorum); assay: Test A preemergence; conditions: Lolium multiflorum, pre-emergence, 240 h, preemergence, 0 to 100 scale where 0 is no effect and 100 is complete control, read-out: Ryegrass, Italian plant response rating
In short: as §1

[6] = tested on: Galium (catchweed bedstraw, Galium aparine); assay: Test A postemergence; conditions: Galium, post-emergence, 240 h
In short: as §1

[7] = tested on: Kochia (Kochia scoparia); assay: Test A postemergence; conditions: Bassia scoparia, post-emergence, 240 h
In short: as §1

[8] = tested on: barnyardgrass (Echinochloa crus-galli); assay: Test A postemergence; conditions: Echinochloa crus-galli, post-emergence, 240 h
In short: as §1

[9] = tested on: blackgrass (Alopecurus myosuroides); assay: Test A postemergence; conditions: Alopecurus myosuroides, post-emergence, 240 h
In short: as §1

[10] = tested on: corn (Zea mays); assay: Test A postemergence; conditions: Zea mays, post-emergence, 240 h
In short: as §1

[11] = tested on: giant foxtail (Setaria faberii); assay: Test A postemergence; conditions: Setaria faberi, post-emergence, 240 h
In short: as §1

[12] = tested on: pigweed (Amaranthus retroflexus); assay: Test A postemergence; conditions: Amaranthus retroflexus, post-emergence, 240 h
In short: as §1

[13] = tested on: ragweed (common ragweed, Ambrosia elatior); assay: Test A postemergence; conditions: Ambrosia artemisiifolia, post-emergence, 240 h
In short: as §1

[14] = tested on: ryegrass, Italian (Italian ryegrass, Lolium multiflorum); assay: Test A postemergence; conditions: Lolium multiflorum, post-emergence, 240 h
In short: as §1

[15] = tested on: wheat (Triticum aestivum); assay: Test A postemergence; conditions: Triticum aestivum, post-emergence, 240 h, Postemergence, 500 g ai/ha; visual injury, 0 to 100 scale (0 no effect, 100 complete control), approx. 10 d; read-out: Plant response rating, Wheat
In short: as §1

[16] = 125 g ai/ha, visual injury rating, approximately 10 d

CN1C[C@H](c2ccc(F)c(C#N)c2)[C@@H](C(=O)Nc2ccccc2F)C1=O [Compound 1254]
pest or weed control at 125 g/ha [1, 16]: 20%
pest or weed control at 500 g/ha ([1]; 500 g ai/ha): 70%
pest or weed control at 125 g/ha [2, 16]: 90%
pest or weed control at 500 g/ha ([2]; 500 g ai/ha): 100%
pest or weed control at 125 g/ha [3, 16]: 20%
pest or weed control at 500 g/ha ([3]; 500 g ai/ha): 70%
pest or weed control at 125 g/ha [4, 16]: 0%
pest or weed control at 500 g/ha ([4]; 500 g ai/ha): 30%
pest or weed control at 125 g/ha [5, 16]: 0%
pest or weed control at 500 g/ha ([5]; 500 g ai/ha): 40%
pest or weed control at 125 g/ha ([6]; 125 g ai/ha, postemergence, visual injury vs untreated controls after approx. 10 d, 0 = no effect, 100 = complete control, read-out: Galium plant response rating (0 to 100 scale)): 30%
pest or weed control at 500 g/ha ([6]; Postemergence, 500 g ai/ha, visual injury, 0 to 100 scale (0 no effect, 100 complete control), approx. 10 d, read-out: Plant response rating, Galium): 50%
pest or weed control at 125 g/ha ([7]; 125 g ai/ha, postemergence, visual injury vs untreated controls after approx. 10 d, 0 = no effect, 100 = complete control, read-out: Kochia plant response rating (0 to 100 scale)): 0%
pest or weed control at 500 g/ha ([7]; Postemergence, 500 g ai/ha, visual injury, 0 to 100 scale (0 no effect, 100 complete control), approx. 10 d, read-out: Plant response rating, Kochia): 40%
pest or weed control at 125 g/ha ([8]; 125 g ai/ha, postemergence, visual injury vs untreated controls after approx. 10 d, 0 = no effect, 100 = complete control, read-out: Barnyardgrass plant response rating (0 to 100 scale)): 80%
pest or weed control at 500 g/ha ([8]; Postemergence, 500 g ai/ha, visual injury, 0 to 100 scale (0 no effect, 100 complete control), approx. 10 d, read-out: Plant response rating, Barnyardgrass): 90%
pest or weed control at 125 g/ha ([9]; 125 g ai/ha, postemergence, visual injury vs untreated controls after approx. 10 d, 0 = no effect, 100 = complete control, read-out: Blackgrass plant response rating (0 to 100 scale)): 0%
pest or weed control at 500 g/ha ([9]; Postemergence, 500 g ai/ha, visual injury, 0 to 100 scale (0 no effect, 100 complete control), approx. 10 d, read-out: Plant response rating, Blackgrass): 40%
plant injury at 125 g/ha ([10]; 125 g ai/ha, postemergence, visual injury vs untreated controls after approx. 10 d, 0 = no effect, 100 = complete control, read-out: Corn plant response rating (0 to 100 scale)): 20%
Corn plant response rating (crop injury, 0 = no effect, 100 = complete kill) at 500 g/ha ([10]; Postemergence, 500 g ai/ha, visual injury, 0 to 100 scale (0 no effect, 100 complete control), approx. 10 d): 50%
pest or weed control at 125 g/ha ([11]; 125 g ai/ha, postemergence, visual injury vs untreated controls after approx. 10 d, 0 = no effect, 100 = complete control, read-out: Foxtail, Giant plant response rating (0 to 100 scale)): 80%
pest or weed control at 500 g/ha ([11]; Postemergence, 500 g ai/ha, visual injury, 0 to 100 scale (0 no effect, 100 complete control), approx. 10 d, read-out: Plant response rating, Foxtail, Giant): 80%
pest or weed control at 125 g/ha ([12]; 125 g ai/ha, postemergence, visual injury vs untreated controls after approx. 10 d, 0 = no effect, 100 = complete control, read-out: Pigweed plant response rating (0 to 100 scale)): 0%
pest or weed control at 500 g/ha ([12]; Postemergence, 500 g ai/ha, visual injury, 0 to 100 scale (0 no effect, 100 complete control), approx. 10 d, read-out: Plant response rating, Pigweed): 20%
pest or weed control at 125 g/ha ([13]; 125 g ai/ha, postemergence, visual injury vs untreated controls after approx. 10 d, 0 = no effect, 100 = complete control, read-out: Ragweed plant response rating (0 to 100 scale)): 0%
pest or weed control at 500 g/ha ([13]; Postemergence, 500 g ai/ha, visual injury, 0 to 100 scale (0 no effect, 100 complete control), approx. 10 d, read-out: Plant response rating, Ragweed): 0%
pest or weed control at 125 g/ha ([14]; 125 g ai/ha, postemergence, visual injury vs untreated controls after approx. 10 d, 0 = no effect, 100 = complete control, read-out: Ryegrass, Italian plant response rating (0 to 100 scale)): 0%
pest or weed control at 500 g/ha ([14]; Postemergence, 500 g ai/ha, visual injury, 0 to 100 scale (0 no effect, 100 complete control), approx. 10 d, read-out: Plant response rating, Ryegrass, Italian): 70%
plant injury at 500 g/ha [15]: 40%
